Key:
Type in all cases: in vivo, Arabidopsis thaliana
[1] = tested on: Arabidopsis seedlings (ecotypes Col, Ler, Shadara); test: Morphological phenotypes of Arabidopsis ecotype seedlings grown on Hsp90 inhibitor
Description: In most cases phenotypes were distinct and were not accompanied by a general failure to thrive. […] Next, several Arabidopsis ecotypes were tested from diverse geographic locations and environments, including Cape Verde Island ([…], Tsu-1, Mr-0, and Ts-1. […] Particular phenotypes were not restricted to particular ecotypes, but the frequencies at which they appeared varied reproducibly between them. […] 30% of seedlings had these phenotypes. […] also frequently produced distorted rosettes with juxtaposed cotyledons. Dwarfed plants with cotyledons that accumulated purple pigment were most common in Col. Curled hypocotyls were most frequent in Ler. Ecotypes were crossed several times in independent experiments to produce F1 seeds. […] Plates were unwrapped after 48 hrs at 22° C., were incubated in continuous light at 150 μmol m^-2 sec^-1 (unless otherwise indicated), and were analyzed after eight and ten days of growth.

[2] = tested on: Cvi/Ler RI line seedlings; test: RI line specific phenotypes on GdA
Description: To test this, recombinant inbred lines (RI lines) were examined, which originated from crosses between two ecotypes followed by single-seed self-propagation for eight generations. Each line should be homozygous at almost all loci, with different lines representing various mosaics of the parental genomes (Alonso-Blanco et al., 1998). If a decrease in Hsp90 function uncovers novel phenotypes due to natural variation, GdA-induced phenotypes should vary between RI lines but tend to be shared within them. Here, work with 50 RI lines derived from a cross between Cvi and Ler (Cvi/Ler, CS22477 base set, ABRC) is presented. These lines are characterized by high rates of recombination and low segregation distortion (Alonso-Blanco et al., 1998). Col/Ler RI lines behaved similarly, although phenotypic variation was not quite so dramatic.
(§1) Ecotypes were crossed several times in independent experiments to produce F1 seeds. […] Plates were unwrapped after 48 hrs at 22° C., were incubated in continuous light at ˜150 μmol m^−2 sec^−1 (unless otherwise indicated), and were analyzed after eight and ten days of growth.
To minimize variation and provide more objective comparisons, two RI lines were plated together on each square plate. All sets were cold treated for 48 hrs. Foil-wrapped plates incubated at 22° C. were treated as described above. Since development was more rapid at 27° C., these plates were unwrapped after 24 hrs instead of 48 hrs. Phenotypes were scored at eight and ten days.

[3] = tested on: F1 seedlings (Col x Ler and Ler x Cvi); test: Phenotypes of F1 progeny of accession crosses with GdA; conditions: Col x Ler and Ler x Cvi F1, in the presence of GdA
Description: To investigate the interplay of genetic variation, stochastic processes, and their dependence on the Hsp90 buffering system, Applicants tested crosses of different, nearly homozygous accessions (Col x Ler and Ler x Cvi) that are believed to have been recentlyevolving independently. If stochastic events contribute to phenotypes predisposed by genotype, then mixing genomes might disrupt developmental stability in F1 progeny. Further, if Hsp90 buffers developmental stability against such events, reducing Hsp90 function in nearly identical F1 progeny should increase phenotypic variance. […] Phenotypes were stronger and more frequent in seedlings with a maternal contribution from Ler (˜20 to 25% affected seedlings) than with maternal contributions from Col or Cvi (˜10 to 15%).
as §1

[4] = RI line 082, S-shaped rosette with vertically oriented leaf blade of cotyledons
[5] = RI line 104, purple pigmentation of cotyledons and true leaves
[6] = RI line 113, curled hypocotyl with root partially extended into air
[7] = RI line 119, deformed, radially-symmetric and missing true leaves
[8] = RI line 120, radially-symmetric and missing true leaves
[9] = RI line 122, distorted rosette, juxtaposed or fused cotyledons

Structure (SMILES): COC1=C2C[C@@H](C)C[C@H](OC)[C@H](O)[C@@H](C)/C=C(\C)[C@H](OC(N)=O)[C@@H](OC)/C=C\C=C(/C)C(=O)NC(=CC1=O)C2=O [GdA, geldanamycin]
- seedlings showing strong morphological abnormalities ([1]; 1.0 μM GdA, Col and Ler): 5-8%
- phenotype frequency in selfed progeny ([1]; progeny of selfed Shadara plants with subtle true leaf abnormalities, with GdA): 75%
- Frequency with 1 μM GdA at 22° C. [2, 4]: 32%
- Frequency with 1 μM GdA at 22° C. (count) [2, 4]: 64/201
- Frequency with 1 μM GdA at 22° C. [2, 5]: 34%
- Frequency with 1 μM GdA at 22° C. (count) [2, 5]: 29/84
- Frequency with 1 μM GdA at 22° C. ([2]; RI line 104, root morphology): 52%
- Frequency with 1 μM GdA at 22° C. (count) ([2]; RI line 104, root morphology): 44/84
- Frequency with 1 μM GdA at 22° C. [2, 6]: 32%
- Frequency with 1 μM GdA at 22° C. (count) [2, 6]: 9/28
- Frequency with 1 μM GdA at 22° C. [2, 7]: 68%
- Frequency with 1 μM GdA at 22° C. (count) [2, 7]: 19/28
- Frequency with 1 μM GdA at 22° C. [2, 8]: 64%
- Frequency with 1 μM GdA at 22° C. (count) [2, 8]: 18/29
- Frequency with 1 μM GdA at 22° C. [2, 9]: 28%
- Frequency with 1 μM GdA at 22° C. (count) [2, 9]: 44/158
- Frequency with 1 μM GdA at 22° C. ([2]; RI line 134, bent hypocotyls): 88%
- Frequency with 1 μM GdA at 22° C. (count) ([2]; RI line 134, bent hypocotyls): 49/56
- Frequency with 1 μM GdA at 22° C. ([2]; RI line 159, root morphology): 50%
- Frequency with 1 μM GdA at 22° C. (count) ([2]; RI line 159, root morphology): 53/105
- decrease of growth rate ([2]; relative to plants grown without GdA at 22° C.): 0.5 to 1 days
- frequency of abnormal phenotypes in F1 progeny [3]: up to 25%

Reference: patent publication US20030028927A1 (priority 2001, published 2003)
